Where “and” joins values, the source holds several entries; their conditions need not be identical. Identical values can stand only once. Like-named read-outs stand apart in the source and are kept apart here. Marks after values point to notes of the source that are not given here. Blank lines part the entries; values can stand above or below the compound they belong to.
Columns and labels:
[1] = In vitro plasma protein binding; type: in vitro ADME, mouse
[2] = Blood concentrations and pharmacokinetics after 1 mg/kg i.v. in mice; type: in vivo, mouse
Method: 1 mg/kg of the compound was injected by IV and blood was withdrawn at the times in table 1. The amount of starting compound was quantified by a standard curve using MS/MS determinations.

S1P2 receptor = S1P2 receptor (Homo sapiens (Human), UniProt O95136); test: Antagonist assay (FLIPR TETRA, inhibition of reference agonist EC80) on S1P2; type: cell-based; details: tested as the citrate salt
Sequence of S1P2 receptor (O95136 whole entry): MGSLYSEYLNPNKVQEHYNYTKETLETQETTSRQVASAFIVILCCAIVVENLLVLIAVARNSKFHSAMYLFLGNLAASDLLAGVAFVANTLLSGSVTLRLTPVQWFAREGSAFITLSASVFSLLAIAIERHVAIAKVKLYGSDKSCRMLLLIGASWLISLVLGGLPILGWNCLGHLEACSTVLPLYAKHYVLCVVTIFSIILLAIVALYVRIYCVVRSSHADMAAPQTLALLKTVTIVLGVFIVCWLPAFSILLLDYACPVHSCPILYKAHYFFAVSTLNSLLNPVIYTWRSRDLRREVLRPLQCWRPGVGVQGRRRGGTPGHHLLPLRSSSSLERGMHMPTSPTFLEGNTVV
Method: (§1) Antagonist percentage inhibition determinations were obtained by assaying sample compounds and referencing the control (EC80) wells for each profiled (GPCR) which evaluated binding to S1P2 and S1P5 receptors. The samples were run using a single addition assay protocol. The protocol design is as follows.
(§2) Unless specified otherwise, the sample compounds were diluted in 100% anhydrous DMSO including all dilutions. The compounds were tested as the citrate salt (1 equivalent per molecule). If the sample compound is provided in a different solvent all master stock dilutions are performed in the specified solvent. All control wells contained identical solvent final concentrations as the sample compound wells.
(§3) The sample compounds were transferred from a master stock solution into a daughter plate that was used in the assay. Each sample compound was diluted into an assay buffer (1×HBSS with 20 mM HEPES, 2.5 mM Probenecid, and 0.4% Free Fatty Acid BSA) at an appropriate concentration to obtain final specified concentrations.
(§4) Using the EC80 values that were determined real-time, stimulated all pre-incubated sample compounds and reference antagonists (if applicable) were compared with the EC80 values of reference agonist. These were read for 180 seconds using the FLIPR^TETRA (This assay added reference agonist to respective wells-then fluorescences measurements were collected to calculate IC50 values). All plates were subjected to appropriate baseline corrections. Once baseline corrections were processed, maximum fluorescence values were exported and data manipulated to calculate percentage activation, percentage inhibition and Z′.

[3] = Microsomal intrinsic clearance; details: mouse, microsomes, mouse microsomes, test conc. 1 μM
S1P5 receptor = S1P5 receptor (Homo sapiens (Human), UniProt Q9H228); test: Antagonist assay (FLIPR TETRA, inhibition of reference agonist EC80) on S1P5; type: cell-based; details: tested as the citrate salt
Sequence of S1P5 receptor (Q9H228 whole entry): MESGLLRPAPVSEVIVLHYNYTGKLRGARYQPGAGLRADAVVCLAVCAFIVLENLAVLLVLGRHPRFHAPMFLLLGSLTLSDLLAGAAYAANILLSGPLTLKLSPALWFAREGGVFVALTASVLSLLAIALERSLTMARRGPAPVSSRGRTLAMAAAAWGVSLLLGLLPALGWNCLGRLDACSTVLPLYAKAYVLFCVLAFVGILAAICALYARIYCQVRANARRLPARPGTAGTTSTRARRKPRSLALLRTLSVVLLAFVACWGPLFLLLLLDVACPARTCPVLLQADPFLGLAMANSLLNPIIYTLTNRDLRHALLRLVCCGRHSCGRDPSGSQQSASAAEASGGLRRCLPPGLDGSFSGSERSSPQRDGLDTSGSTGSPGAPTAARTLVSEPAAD
Method: as §1, §2, §3, §4

in vitro = details: mouse, microsomes, NADPH-dependent Clint (microsomal intrinsic clearance)

SMILES: Cc1nn(C)c2nc(NNC(=O)Nc3cc(Cl)nc(Cl)c3)cc(C(C)C)c12 [JTE013, N-(1H-4-isopropyl-1,3-dimethylpyrazolo[3,4-b]pyridine-6-yl)amino-N′-(2,6-dichloropyridine-4-yl) urea]
mean fraction bound (%) ([1]; mouse plasma, test concentration 5 nM): 99.7% | AUC0-inf ([2]; mouse blood, individual mice): 88.2 ng·h/mL and 122 ng·h/mL | AUC0-inf Extrapolated ([2]; mouse blood, individual mice): 6.50% and 2.89% and 12.1% | AUC0-tlast ([2]; mouse blood, individual mice): 85.6 ng·h/mL and 108 ng·h/mL | AUMC0-inf ([2]; mouse blood, individual mice): 153 h^2*ng/mL and 71.2 h^2*ng/mL and 652 h^2*ng/mL | AUMC0-inf Extrapolated ([2]; mouse blood, individual mice): 68.6% and 39.9% and 88.0% | AUMC0-tlast ([2]; mouse blood, individual mice): 48.1 h^2*ng/mL and 42.8 h^2*ng/mL and 78.0 h^2*ng/mL | C0 ([2]; mouse blood, individual mice): 397 ng/mL and 536 ng/mL | CL ([2]; mouse blood, individual mice): 188 mL/min/kg and 136 mL/min/kg | MRT0-inf ([2]; mouse blood, individual mice): 1.40 h and 0.807 h and 5.33 h | MRT0-tlast ([2]; mouse blood, individual mice): 0.500 h and 0.725 h | Terminal half-life ([2]; mouse blood, individual mice): 6.11 h and 3.56 h and 18.7 h | Vss ([2]; mouse blood, individual mice): 12.8 L/kg and 9.16 L/kg and 43.6 L/kg | AUC0-inf Extrapolated, Mean S.D. ([2]; mouse blood, mean): 7.15 ± 4.61% | AUMC0-inf Extrapolated, Mean S.D. ([2]; mouse blood, mean): 65.5 ± 24.2% | AUMC0-inf, Mean S.D. ([2]; mouse blood, mean): 292 ± 314 h^2*ng/mL | AUMC0-tlast, Mean S.D. ([2]; mouse blood, mean): 56.3 ± 19.0 h^2*ng/mL | C0, Mean S.D. ([2]; mouse blood, mean): 462 ± 70.1 ng/mL | Blood Concentrations ([2]; mouse, 5 min, individual mice, LLOQ = 1 ng/mL): 231 ng/mL and 302 ng/mL | Blood Concentrations ([2]; mouse, 0.25 h, individual mice, LLOQ = 1 ng/mL): 78.3 ng/mL and 95.8 ng/mL | Blood Concentrations ([2]; mouse, 0.5 h, individual mice, LLOQ = 1 ng/mL): 33.8 ng/mL and 40.4 ng/mL | Blood Concentrations ([2]; mouse, 1 h, individual mice, LLOQ = 1 ng/mL): 14.4 ng/mL and 13.4 ng/mL | Blood Concentrations ([2]; mouse, 2 h, individual mice, LLOQ = 1 ng/mL): 3.16 ng/mL and 3.12 ng/mL | Blood Concentrations ([2]; mouse, 4 h, individual mice, LLOQ = 1 ng/mL): 0.732^c ng/mL and 0.771^c ng/mL | Blood Concentrations ([2]; mouse, 6 h, individual mice, LLOQ = 1 ng/mL): 0.496^c ng/mL and 0.643^c ng/mL | Blood Concentrations ([2]; mouse, 12 h, individual mice, LLOQ = 1 ng/mL): BLQ | pharmacokinetics / blood levels following intravenous injection in mice (in words) ([2]; mouse, comparison between compounds): better than compound 2 | AUC0-inf ([2]; mouse, in vivo, iv, 1 mg/kg, mouse blood, individual mice, read-out: AUC0-inf): 109 ng·h/mL | AUC(0-t) ([2]; mouse, in vivo, iv, 1 mg/kg, mouse blood, individual mice, read-out: AUC0-tlast): 102 ng·h/mL | C0 ([2]; mouse, in vivo, iv, 1 mg/kg, mouse blood, individual mice, read-out: C0): 453 ng/mL | clearance ([2]; mouse, in vivo, iv, 1 mg/kg, mouse blood, individual mice, read-out: CL (converted)): 153 mL/min/kg | MRT last ([2]; mouse, in vivo, iv, 1 mg/kg, mouse blood, individual mice, read-out: MRT0-tlast): 0.471 h | AUC0-inf ([2]; mouse, in vivo, iv, 1 mg/kg, mouse blood, mean, read-out: AUC0-inf, Mean S.D.): 107 ± 17.2 ng·h/mL | AUC(0-t) ([2]; mouse, in vivo, iv, 1 mg/kg, mouse blood, mean, read-out: AUC0-tlast, Mean S.D.): 98.4 ± 11.4 ng·h/mL | clearance ([2]; mouse, in vivo, iv, 1 mg/kg, mouse blood, mean, read-out: CL, Mean S.D. (converted)): 159 mL/min/kg | MRT inf ([2]; mouse, in vivo, iv, 1 mg/kg, mouse blood, mean, read-out: MRT0-inf, Mean S.D.): 2.51 ± 2.46 h | MRT last ([2]; mouse, in vivo, iv, 1 mg/kg, mouse blood, mean, read-out: MRT0-tlast, Mean S.D.): 0.565 ± 0.139 h | half-life ([2]; mouse, in vivo, iv, 1 mg/kg, mouse blood, mean, read-out: Terminal half-life, Mean S.D. (converted)): 9.45 ± 8.09 h | Vd ([2]; mouse, in vivo, iv, 1 mg/kg, mouse blood, mean, read-out: Vss, Mean S.D.): 21.9 ± 18.9 L/kg | concentration at 5 min ([2]; mouse, in vivo, iv, 1 mg/kg, mouse, 5 min, individual mice, LLOQ = 1 ng/mL, read-out: Blood Concentrations): 282 ng/mL | concentration at 5 min ([2]; mouse, in vivo, iv, 1 mg/kg, mouse, 5 min, mean of 3 mice, read-out: Blood Concentrations, Mean S.D.): 272 ± 36.6 ng/mL | concentration at 0.25 h ([2]; mouse, in vivo, iv, 1 mg/kg, mouse, 0.25 h, individual mice, LLOQ = 1 ng/mL, read-out: Blood Concentrations): 109 ng/mL | concentration at 0.25 h ([2]; mouse, in vivo, iv, 1 mg/kg, mouse, 0.25 h, mean of 3 mice, read-out: Blood Concentrations, Mean S.D.): 94.4 ± 15.4 ng/mL | concentration at 0.5 h ([2]; mouse, in vivo, iv, 1 mg/kg, mouse, 0.5 h, individual mice, LLOQ = 1 ng/mL, read-out: Blood Concentrations): 44.4 ng/mL | concentration at 0.5 h ([2]; mouse, in vivo, iv, 1 mg/kg, mouse, 0.5 h, mean of 3 mice, read-out: Blood Concentrations, Mean S.D.): 39.5 ± 5.35 ng/mL | concentration at 1 h ([2]; mouse, in vivo, iv, 1 mg/kg, mouse, 1 h, individual mice, LLOQ = 1 ng/mL, read-out: Blood Concentrations): 11.8 ng/mL | concentration at 1 h ([2]; mouse, in vivo, iv, 1 mg/kg, mouse, 1 h, mean of 3 mice, read-out: Blood Concentrations, Mean S.D.): 13.2 ± 1.31 ng/mL | concentration at 2 h ([2]; mouse, in vivo, iv, 1 mg/kg, mouse, 2 h, individual mice, LLOQ = 1 ng/mL, read-out: Blood Concentrations): 2.72 ng/mL | concentration at 2 h ([2]; mouse, in vivo, iv, 1 mg/kg, mouse, 2 h, mean of 3 mice, read-out: Blood Concentrations, Mean S.D.): 3 ± 0.243 ng/mL | concentration at 4 h ([2]; mouse, in vivo, iv, 1 mg/kg, mouse, 4 h, individual mice, LLOQ = 1 ng/mL, read-out: Blood Concentrations): 1.01 ng/mL | concentration at 4 h ([2]; mouse, in vivo, iv, 1 mg/kg, mouse, 4 h, mean (n = 2 for Cmpd-1), read-out: Blood Concentrations, Mean S.D.): 0.838 ± 0.151 ng/mL | concentration at 6 h ([2]; mouse, in vivo, iv, 1 mg/kg, mouse, 6 h, individual mice, LLOQ = 1 ng/mL, read-out: Blood Concentrations): 0.805 ng/mL | concentration at 6 h ([2]; mouse, in vivo, iv, 1 mg/kg, mouse, 6 h, mean (n = 2 for Cmpd-1), read-out: Blood Concentrations, Mean S.D.): 0.648 ± 0.155 ng/mL | concentration at 12 h ([2]; mouse, in vivo, iv, 1 mg/kg, mouse, 12 h, individual mice, LLOQ = 1 ng/mL, read-out: Blood Concentrations): 0.547 ng/mL | IC50 (S1P2 receptor): 11 nM | microsomal CLint at 1 μM ([3]; NADPH-dependent Clint (microsomal intrinsic clearance)): 770 µL/min/mg | half-life at 1 μM ([3]; NADPH-dependent T1/2 (half-life)): 0.05 h | microsomal CLint at 1 μM ([3]; NADPH-free Clint (microsomal intrinsic clearance)): 22 µL/min/mg | half-life at 1 μM ([3]; NADPH-free T1/2 (half-life)): 1.75 h | IC50 (S1P5 receptor): 1.3 nM

mean fraction bound (%) ([1]; mouse, 5 nM): 92.1% | microsomal CLint at 1 μM (in vitro): 15 µL/min/mg
SMILES: CC(=O)CC(c1ccccc1)c1c(O)c2ccccc2oc1=O (centres unmarked) [Warfarin, reference compound]
